From publication PMC9738062, “Selectively Halogenated Flavonolignans—Preparation and Antibacterial Activity” (International Journal of Molecular Sciences, 2022)

What was measured:
DPPH radical scavenging = details: 1,1-diphenyl-2-picrylhydrazyl radical scavenging
Method: (§1) To further elucidate how halogenation affects other properties of the flavonoids studied, their 2,2′-azino-bis-(3-ethylbenzothiazoline-6-sulfonic acid) cation (ABTS) and 1,1-diphenyl-2-picrylhydrazyl (DPPH) radical scavenging, the Folin–Ciocalteu reagent (FCR) reducing, the ferric-reducing antioxidant power (FRAP), and the anti-lipoperoxidation activities were evaluated by in vitro methods (Supplementary Information Tables S1 and S2).
(§2) The antiradical activity was evaluated by the ability to scavenge ABTS and DPPH radicals. Reducing capacity was assessed by the ability to reduce the Folin–Ciocalteu reagent (FCR) and ferric ions (FRAP). The ability to inhibit lipid peroxidation of pooled male rat microsomal liver membranes induced by tert-butyl hydroperoxide was also evaluated and the results were expressed as IC50 values.

[1] = tested on: pooled male rat microsomal liver membranes; assay: Inhibition of lipid peroxidation induced by tert-butyl hydroperoxide; assay type: biochemical; details: male rat microsomes, read-out: ILP IC50
Method: as §2

[2] = ABTS cation radical scavenging; details: vitamin C equivalent antioxidant capacity
Method: as §1, §2

[3] = Folin-Ciocalteu reagent reduction; details: gallic acid equivalents
Method: as §1, §2

[4] = Ferric reducing antioxidant power (FRAP); details: Fe2+ equivalents
Method: as §1, §2

breast cancer cell lines = tested on: breast cancer cell lines; set-up: method as in PMID 23962161; details: cited from earlier work
[5] = tested on: S. aureus biofilm formation; set-up: method as in PMID 28365326; details: cited from earlier work
[6] = tested on: Vibrio campbellii BAA 1119 (AI-2); assay: microbe, parasite or virus in culture; assay type: cell-based; details: for EC50: Vibrio campbellii, BAA1119, 16 h, read-out: EC50 (concentration that halved the communication)
Excerpt: (§3) Commercially available strains of Vibrio campbellii were used to evaluate the ability of flavonoids and their derivatives to inhibit bacterial quorum sensing. V. campbellii uses two types of autoinducing molecules for its communication—N-acyl-homoserine lactones (Autoinducer I, AI-1, strain BAA 1118) and furanosyl borate diester (Autoinducer II, AI-2, strain BAA 1119). AI-1-based communication is mainly used by Gram-negative bacteria, while AI-2-based communication is found in both Gram-negative and Gram-positive bacteria. The mutant strains of V. campbellii BA1118 and BA1119 respond only to AI-1 or AI-2, respectively, and the response to the respective AI concentration is measured as luminescence. The higher the AI concentration, the higher the luminescence signal. The ability to inhibit the communication was expressed as the selectivity index (SI), calculated as the ratio between the concentration that halved the viability (IC50) and the concentration that halved the communication (EC50) of the respective V. campbellii strains. […] The antimicrobial activity of quorum-sensing inhibitors is undesirable because it creates a selection pressure and can lead to the development of resistance.
(§4) The inhibition of bacterial extracellular communication was measured using Vibrio campbellii strains BAA-1118 and BAA-1119. The experiment was performed according to the methods of Szemerédi et al.. Briefly, 5 × 10^5 CFU/mL (colony-forming units per milliliter) were seeded in an Autoinducer Bioassay medium (NaCl 17.5 g/L, MgSO4 12.3 g/L, Casamino acids 2 g/L, 10 mL of 1 M potassium phosphate pH 7.0, 10 mL of 0.1 M L-arginine, and 10 mL of glycerol in 970 mL of deionized water) in a 96-well plate. Immediately, the tested compounds were added at the final concentration of 0.2–200 µM and luminescence was recorded for 16 h by a SpectraMax i3x microplate reader set at 30 °C, an integration time of 10,000 ms, and shaking for 60 s before measurement. […] The selectivity index was calculated as the […]. The EC50 and IC50 were calculated using GraphPad Prism software version 5.00 for Windows with a nonlinear regression curve fit.

[7] = tested on: Vibrio campbellii BAA 1118 (AI-1); assay: microbe, parasite or virus in culture; assay type: cell-based; details: Vibrio campbellii, BAA1118, 16 h, read-out: EC50 (concentration that halved the communication)
Excerpt: as §3, §4

[8] = tested on: multidrug-resistant S. aureus; assay: Sensitization of antibiotic-resistant bacteria (compound plus breakpoint antibiotic concentration); assay type: cell-based, Staphylococcus aureus; details: flavonoid 40 µM, 24 h; for Effect on viability in combination with chloramphenicol: chloramphenicol 8 mg/L
Method: (§5) Clinically relevant antibiotics were selected for sensitization testing according to the European Committee on Antimicrobial Susceptibility Testing (EUCAST). Neither colistin and imipenem at breakpoint concentrations (according to EUCAST, […] and […]) affected the growth of the multidrug-resistant clinical strain of P. aeruginosa. Similarly, neither chloramphenicol and gentamicin at breakpoint concentrations ([…], respectively) affected the multidrug-resistant clinical strain of S. aureus. Flavonoids and their derivatives (1–40 µM) were used in combination therapy, along with the breakpoint concentration of antibiotics. After co-incubation, the minimum inhibitory concentration of flavonoids inhibiting the visible growth of bacteria was determined (Table 2).
(§6) Clinical isolates of P. aeruginosa and S. aureus were obtained from the General University Hospital in Prague (Prague, Czech Republic). P. aeruginosa was resistant to ciprofloxacin, oxacillin, ticarcillin, colistin, gentamicin, and imipenem. S. aureus was resistant to ciprofloxacin, gentamicin, erythromycin, chloramphenicol, clindamycin, oxacillin, cefotaxime, and vancomycin. Bacteria were cultivated in Mueller–Hinton broth (MH broth, Merck). The susceptibility of the bacteria was evaluated by the minimum inhibitory concentrations (MIC). The MIC of derivatives in the presence of the antibiotic cut-off concentration was determined according to ISO 20776-1: 2020. The antibiotic cut-off concentration was chosen according to the European Committee on Antimicrobial Susceptibility Testing (EUCAST, Clinical breakpoints—bacteria (ver. 11.0), 1 January 2021). The 40 µM concentration of the derivatives was chosen as the highest concentration for the tests. Cell viability was determined by measuring absorbance (A590 nm) after 24 h incubation at 37 °C, 150 rpm.

[9] = tested on: multidrug-resistant P. aeruginosa; assay: as above; assay type: cell-based, Pseudomonas aeruginosa; details: flavonoid 40 µM, 24 h; for Effect on viability in combination with imipenem: imipenem 4 mg/L; on Effect on viability in combination with imipenem: key: -: no effect (100% viability) was observed up to the highest flavonolignan concentration tested (>40 µM); reversion of resistance: the compound reversed the resistant phenotype to a sensitive one
Method: as §5, §6

[10] = tested on: human dermal fibroblasts (HDF); assay: Cytotoxicity (resazurin assay, 72 h); assay type: cell-based; details: Fibroblast
Method: (§7) The cytotoxicity of flavonoids and their halogenated derivatives was determined as their ability to decrease the viability of human dermal fibroblasts (HDF) and doxorubicin-resistant human ovarian carcinomas (HOC/DOX). Both cell lines were cultivated in Dulbecco’s Modified Eagle’s Medium supplemented with fetal bovine serum (FBS, 10% v/v) and 1 × antibiotic antimycotic solution and incubated at 37 °C in the atmosphere of 5% CO2. The experiment was performed according to a previously published method. Briefly, 1 × 10^5 cells/mL were seeded into a 96-well plate (100 µL/well). After 24 h, flavonoids and their derivatives were administered at the concentration range of 31.25–500 µM. After 72 h, the viability was determined by resazurin assay (0.03 mg/mL of resazurin in PBS), where the fluorescence was measured after 2 h of incubation by the SpectraMax i3x microplate reader at a wavelength of 560/590 nm (excitation/emission). The concentration inhibiting half of the population (IC50) was determined using nonlinear regression in GraphPad Prism software. The selectivity index was calculated as the ratio between the IC50 for HDF (control, non-cancerous cells) and the IC50 for HOC/DOX (cancer cells).

[11] = tested on: doxorubicin-resistant human ovarian carcinoma (HOC/DOX); assay: Cytotoxicity (resazurin assay, 72 h); assay type: cell-based; details: for IC50: Homo sapiens, 72 h, resazurin assay; for SI (selectivity index): ratio IC50 for HDF / IC50 for HOC/DOX
Method: as §7

[12] = tested on: Vibrio campbellii BAA 1118 (AI-1); assay: Viability of the quorum-sensing reporter culture (resazurin assay), AI-1 strain; assay type: cell-based; details: BAA1118, V. campbellii BAA 1118, resazurin assay, read-out: IC50 (concentration that halved the viability)
Excerpt: as §3, §4

[13] = tested on: lipopolysaccharide-stimulated macrophages (RAW 264.7); assay: Inhibition of nitric oxide production (Griess reagent); assay type: cell-based, murine; details: Mus musculus, RAW264.7; LPS 100 ng/mL, 24 h; highest tested concentration 100 µM; read-out: NO Production IC50
Method: The anti-inflammatory activity of the tested flavonolignans was determined as the ability to reduce nitric oxide production by murine macrophages (RAW 264.7) stimulated by bacterial lipopolysaccharides, as previously described. […] For the experiment, 1 × 10^6 cells/mL was seeded into the 96-well plate (100 µL/well). […] After 24 h, the medium was mixed with Griess reagent (0.04 g/mL), prepared freshly in deionized water at the ratio of 1:1. The absorbance was measured after 15 min at 540 nm by the SpectraMax i3x microplate reader. Cell viability was determined by resazurin assay.

[14] = tested on: Vibrio campbellii BAA 1119 (AI-2); assay: Viability of the quorum-sensing reporter culture (resazurin assay), AI-2 strain; assay type: cell-based; details: BAA1119, V. campbellii BAA 1119, resazurin assay, read-out: IC50 (concentration that halved the viability)
Excerpt: as §3, §4

COc1cc([C@@H]2Oc3c(O)cc([C@H]4Oc5c(I)c(O)c(I)c(O)c5C(=O)[C@@H]4O)cc3[C@H]2CO)ccc1O [compound 27, 6,8-diiodosilychristin A]
IC50 (DPPH radical scavenging): 168 µM
IC50 [1]: 97.2 ± 3.5 µM
ABTS [CEAC] [2]: 1.13 ± 0.01 CEAC
FCR [GAE] [3]: 1.79 ± 0.05 GAE
FRAP [Fe2+eq] [4]: 0.21 ± 0.01 Fe2+eq

prulonide A
Concentration showing cytotoxicity (breast cancer cell lines): 1000 nM

O=c1c(O)c(-c2cc(O)c(O)c(O)c2)oc2cc(O)cc(O)c12 [myricetin]
Concentration inhibiting S. aureus biofilm formation [5]: ≤ 4 µM

O=C(CCc1ccc(O)cc1)c1c(O)cc(O)cc1O [phloretin]
Concentration inhibiting S. aureus biofilm formation [5]: ≤ 4 µM

COc1ccc([C@@H]2CC(=O)c3c(O)cc(O)cc3O2)cc1O [hesperetin]
Concentration inhibiting S. aureus biofilm formation [5]: ≤ 4 µM

COc1cc(C2Oc3cc(-c4oc5c(Br)c(O)c(Br)c(O)c5c(=O)c4O)ccc3OC2CO)ccc1O (stereo not drawn) [compound 17, 6,8-dibromo-2,3-dehydrosilybin AB]
EC50 [6]: 4.1 ± 0.2 µM
SI (selectivity index) ([6]; ratio IC50 (viability) / EC50 (communication), BAA 1119): 31.2 ± 3.5
EC50 [7]: 55.5 ± 1.6 µM
IC50 (DPPH radical scavenging): 11.7 µM
Effect on viability in combination with chloramphenicol [8]: -
Effect on viability in combination with gentamicin ([8]; gentamicin 1 mg/L): -
Effect on viability in combination with imipenem [9]: -
IC50 [10]: 41.7 ± 1 µM
IC50 [11]: 91.3 ± 1.6 µM
SI (selectivity index) [11]: 0.46
IC50 [12]: > 200 µM
IC50 [13]: 44.4 ± 2.4 µM
IC50 [1]: 56.7 ± 1.6 µM
ABTS [CEAC] [2]: 1.49 ± 0.04 CEAC
IC50 [14]: 127 ± 7.4 µM
FCR [GAE] [3]: 1.50 ± 0.02 GAE
FRAP [Fe2+eq] [4]: 0.54 ± 0.04 Fe2+eq

COc1cc([C@@H]2Oc3c(O)cc([C@H]4Oc5c(Br)c(O)c(Br)c(O)c5C(=O)[C@@H]4O)cc3[C@H]2CO)ccc1O [compound 15, 6,8-Dibromosilychristin A]
EC50 [6]: > 200 µM
EC50 [7]: > 200 µM
IC50 (DPPH radical scavenging): 106 µM
Effect on viability in combination with chloramphenicol [8]: -
Effect on viability in combination with colistin ([9]; colistin 2 mg/L): -
Effect on viability in combination with imipenem [9]: -
IC50 [10]: 176 µM
IC50 [11]: 249 µM
SI (selectivity index) [11]: 0.71
IC50 [12]: > 200 µM
IC50 [13]: > 100 µM
IC50 [1]: 459 µM
ABTS [CEAC] [2]: 1.28 ± 0.02 CEAC
IC50 [14]: > 200 µM
FCR [GAE] [3]: 2.03 ± 0.05 GAE
FRAP [Fe2+eq] [4]: 0.34 ± 0.03 Fe2+eq
